The structures appear in SMILES notation.

Broadly, the Km is the substrate concentration at which the rate is half of its maximum.

For experiment [1], the target named is G. stearothermophilus tyrosyl-tRNA synthetase (Geobacillus stearothermophilus, UniProt P00952). The experiment in a line: Tyrosyl-tRNA synthetase assay with tRNA recycling (AMP release coupled to NADH). The conditions noted are these: for kcat: aminoacylation of tRNA^Tyr by the named tyrosine isomer, 10 mM MgATP.
Description: The pH of all stock solutions was adjusted to 7.0 prior to use. All kinetic assays were performed in 96 well microtiter plates at 25° C. using either 100 or 200 μl of assay mix per well. Under these conditions, the path lengths are 0.28 and 0.56 cm, respectively. The reaction rate for formation of the L-Tyr-tRNA^TYr product was determined by monitoring the increase in absorbance at 340 nm associated with the conversion of NAD^+ to NADH using a BioTek Synergy 4 plate reader (ε340=6220 M^−1 cm^−1).
Initial rates for each substrate concentration were determined from a linear fit of the data (A340 vs. time). Km and Vmax values were determined by fitting a plot of the initial rate vs. substrate concentration to the Michaelis-Menten equation, the same equations (1) and (2) above:
[formula] where vo is the initial rate of the reaction and [S] is the substrate concentration. kcat values were calculated from the equation: Vmax=kcat[E]
The target of experiment [2] is IMP dehydrogenase (Saccharomyces cerevisiae, UniProt P50095). The experiment is classed as biochemical.
Chain of IMP dehydrogenase (P50095 whole entry): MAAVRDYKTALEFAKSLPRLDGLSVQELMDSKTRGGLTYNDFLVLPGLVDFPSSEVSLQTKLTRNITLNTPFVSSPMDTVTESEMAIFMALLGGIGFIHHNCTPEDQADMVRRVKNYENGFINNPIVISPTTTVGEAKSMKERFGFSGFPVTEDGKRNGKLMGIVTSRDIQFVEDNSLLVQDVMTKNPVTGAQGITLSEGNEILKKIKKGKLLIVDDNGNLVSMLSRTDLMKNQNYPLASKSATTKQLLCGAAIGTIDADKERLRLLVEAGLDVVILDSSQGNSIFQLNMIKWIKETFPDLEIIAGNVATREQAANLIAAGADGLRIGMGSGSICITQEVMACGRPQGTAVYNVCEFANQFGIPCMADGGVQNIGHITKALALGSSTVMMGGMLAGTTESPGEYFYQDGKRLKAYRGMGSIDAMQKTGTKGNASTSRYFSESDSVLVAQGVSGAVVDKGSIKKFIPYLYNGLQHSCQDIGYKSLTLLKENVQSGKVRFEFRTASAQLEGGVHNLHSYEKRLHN

Chain of G. stearothermophilus tyrosyl-tRNA synthetase (P00952 whole entry): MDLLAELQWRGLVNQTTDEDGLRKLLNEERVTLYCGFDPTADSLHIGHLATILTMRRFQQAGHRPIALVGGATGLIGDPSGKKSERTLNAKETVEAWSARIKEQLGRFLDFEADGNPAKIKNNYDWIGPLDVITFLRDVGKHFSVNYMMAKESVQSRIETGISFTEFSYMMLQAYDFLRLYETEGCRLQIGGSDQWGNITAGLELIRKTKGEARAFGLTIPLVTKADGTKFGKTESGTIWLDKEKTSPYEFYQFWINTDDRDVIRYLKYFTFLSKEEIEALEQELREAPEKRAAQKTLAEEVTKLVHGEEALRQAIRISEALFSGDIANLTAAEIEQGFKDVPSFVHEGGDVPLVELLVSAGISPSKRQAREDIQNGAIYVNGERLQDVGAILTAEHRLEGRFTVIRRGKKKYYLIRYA

Regarding `N[C@@H](Cc1ccc(O)cc1)C(=O)O` [L-Tyrosine, L-tyrosine], the kcat in experiment [1] is reported as 2.8 (±0.6) s^−1. Consider `NC(=O)c1ccc[n+]([C@@H]2O[C@H](COP(=O)([O-])OP(=O)(O)OC[C@H]3O[C@@H](n4cnc5c(N)ncnc54)[C@H](O)[C@@H]3O)[C@@H](O)[C@H]2O)c1` [NAD^+], for which the Km in experiment [2] (50 mM TRIS pH 7.2, 25° C., other substrate at 5 mM, standard error in parenthesis) stood at 800 µM. For the same compound, the “affinity higher than for the C. albicans IMP dehydrogenase homolog” value in experiment [2] (S. cerevisiae vs Candida albicans enzyme) was 4 fold. On to `N[C@H](Cc1ccc(O)cc1)C(=O)O` [D-Tyrosine, D-tyrosine], for which, in experiment [1], the kcat is given as 0.32 (±0.08) s^−1. Besides, in experiment [1] (single turnover assay was in the absence of tRNA^Tyr), the “Km^D-Tyr lower than Kd^D-Tyr determined by single turnover kinetics” value amounted to 8 fold.

These data come from patent US9777309B2, “High throughput assay for monitoring AMP production and aminoacyl-tRNA synthetase activity” (Board of Supervisors of Louisiana State University and …, priority 2014, dated 2017).
